Holding throughout (assay type): cell-based
Assay [1] addresses T1, 5-hydroxytryptamine receptor 3A (Homo sapiens) (UniProt P46098).
T1 sequence (whole entry): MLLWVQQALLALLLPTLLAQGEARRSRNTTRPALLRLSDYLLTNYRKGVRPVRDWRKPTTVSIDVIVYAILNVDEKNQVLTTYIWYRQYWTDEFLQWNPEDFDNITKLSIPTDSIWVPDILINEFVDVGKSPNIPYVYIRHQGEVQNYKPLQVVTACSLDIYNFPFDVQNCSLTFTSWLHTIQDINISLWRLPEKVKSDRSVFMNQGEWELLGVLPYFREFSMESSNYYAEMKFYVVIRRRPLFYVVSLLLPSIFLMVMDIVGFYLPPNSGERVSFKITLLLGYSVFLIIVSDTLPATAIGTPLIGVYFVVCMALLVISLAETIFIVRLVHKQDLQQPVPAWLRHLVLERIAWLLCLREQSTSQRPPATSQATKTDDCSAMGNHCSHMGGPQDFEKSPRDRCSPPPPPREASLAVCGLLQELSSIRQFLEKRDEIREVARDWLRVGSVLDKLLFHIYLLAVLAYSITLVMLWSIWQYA
The experiment in a line: Binding affinity to C-terminal-His6-tagged 5HT3A receptor (unknown origin) expressed in HEK293 cells assessed as decrease in fluorescence at 10 to 500 nM after 2 hrs by fluorimetric analysis in presence of granisetron.

For assay [2], the target named is T2, 5-hydroxytryptamine receptor 3A (Homo sapiens, UniProt P46098).
T2 sequence (P46098 whole entry): T1 sequence (whole entry)
The experiment in a line: Binding affinity to C-terminal-His6-tagged 5HT3A receptor (unknown origin) expressed in HEK293 cells after 2 hrs by fluorimetric analysis.

Assay [3] deals with T1, 5-hydroxytryptamine receptor 3A (Homo sapiens). Briefly: Binding affinity to C-terminal-His6-tagged 5HT3A receptor (unknown origin) expressed in HEK293 cells assessed as decrease in fluorescence at 10 to 500 nM after 2 hrs by fluorimetric analysis.

Activity calls are given as the source filed them. The calls are words filed in the database; no cut-off is given here.

What is called Kd is the concentration at which binding is half-saturated. High values mean a looser complex, low ones a tighter complex.

Turning to `CN(C)c1ccc2c(-c3ccc(C(=O)NCCCCCNC(=O)CCn4cc(CCN)c5cc(O)ccc54)cc3C(=O)[O-])c3ccc(=[N+](C)C)cc-3oc2c1`, the result in assay [1] was inactive. This molecule had an equilibrium dissociation constant (Kd) in assay [2] of 0.083 µM. In addition, the result in assay [3] was Active.

For the origin of these results see ChEMBL document CHEMBL2321670, “Near native binding of a fluorescent serotonin conjugate to serotonin type 3 receptors” (Bioorg Med Chem Lett, 2013).
